{"source": "paper PMC10354055", "about": "“An optimized Nurr1 agonist provides disease-modifying effects in Parkinson’s disease models” (Nature Communications, 2023)", "key": {"Nor1": {"molecular_target": "T1, Nor1 (Homo sapiens, UniProt Q92570)", "T1 construct": "using LBD of NR4A subfamily members in SK-N-BE(2)C cells; expressed in transfected cells; host or cells: SK-N-BE(2)C", "T1 sequence (Q92570 394-623 limits assumed)": "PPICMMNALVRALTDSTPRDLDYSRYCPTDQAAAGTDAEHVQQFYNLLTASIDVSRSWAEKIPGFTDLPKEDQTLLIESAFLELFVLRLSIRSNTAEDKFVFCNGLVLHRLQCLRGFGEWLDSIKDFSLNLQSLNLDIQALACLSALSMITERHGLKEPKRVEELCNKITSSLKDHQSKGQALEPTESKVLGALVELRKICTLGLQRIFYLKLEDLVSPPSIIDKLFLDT", "experiment": "Luciferase reporter assay, Nor1 LBD, SK-N-BE(2)C cells", "type": "cell-based", "details": "Fig. 1f; CQ 100 µM, 4A7C-301 20 µM, PGA1 10 µM"}, "TH+ neurons": {"tested_on": "TH+ neurons", "experiment": "Primary rat VM neuron-glia co-culture, TH+ neurons (ICC)", "type": "cell-based", "experimental": "After blocking with 10% normal donkey serum (NDS) and 0.1% Triton X-100 solution for 1 h at room temperature, cells were incubated with primary antibodies against TH (1:1,000; Pel Freez, P40401) and Iba-1 (1:500; Abcam, ab5076) in 1% NDS and 0.1% Triton X-100 solution for overnight at 4 °C. […] Fluorescence images were taken using a KEYENCE microscope (BZ-X800; KEYENCE)."}, "[1]": {"tested_on": "AAV-αSyn-induced male mice", "experiment": "Olfactory discrimination test, AAV-αSyn-induced PD model mice", "type": "in vivo, mouse", "source_text": "Adeno-associated viruses (AAVs) expressing GFP only or αSyn (wild-type or A53T) were kindly provided by Dr. Yoon Seong Kim from the University of Central Florida. Recombinant AAV vectors were produced using modified pAAV-IRES-hrGFP (Agilent) to express wild-type and mutant human αSyn under control of the CMV promoter. Viral particles (AAV2) were produced at the University of Iowa Viral Vector Core according to standard operating procedures (https://medicine.uiowa.edu/vectorcore/). […] AAV vectors were delivered into the substantia nigra unilaterally by stereotaxic surgery.\nThe olfactory discrimination test was designed based on Prediger et al.. Briefly, mice were placed in a chamber (40 (w) × 20 (d) × 20 (h) cm) segmented with two identical compartments containing fresh sawdust (non-familiar odor) on one side and unchanged sawdust (familiar odor; maintained for 3 days before the test) on the other side. Mice could choose between one or another area by freely passing through an open door, for 5 min. Mice movements were monitored with EthoVision XT version 7.0 (Noldus) and time (s) and distance (cm) traveled in each compartment were recorded and analyzed."}, "Nurr1-LBD": {"molecular_target": "T2, Nurr1-LBD (Mus musculus, UniProt Q06219)", "T2 construct": "transfected with pCMV-fNurr1, pGAL-Nurr1(LBD), pGAL-Nor1(LBD) or pGAL-Nur77(LBD) and reporter construct; expressed in transfected cells; host or cells: SK-N-BE(2)C (human neuroblastoma), N27-A (rat dopaminergic), MN9D (murine dopaminergic)", "T2 sequence (Q06219 360-595 limits assumed)": "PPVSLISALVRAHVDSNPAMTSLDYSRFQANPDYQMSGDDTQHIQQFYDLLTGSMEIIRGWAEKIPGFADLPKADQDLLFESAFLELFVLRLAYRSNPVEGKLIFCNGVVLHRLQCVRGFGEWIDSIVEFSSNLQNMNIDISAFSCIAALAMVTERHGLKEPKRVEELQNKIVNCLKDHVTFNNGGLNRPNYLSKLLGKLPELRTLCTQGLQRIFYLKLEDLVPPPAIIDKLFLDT", "experiment": "Luciferase reporter assay, Nurr1-LBD, MN9D cells", "type": "cell-based", "source_text": "(§1) Nurr1 transactivity was normalized to β-galactosidase activity."}, "full-length Nurr1": {"molecular_target": "T3, full-length Nurr1 (Mus musculus, UniProt Q06219)", "T3 construct": "Luciferase assays using Nurr1-LBD (c) or full-length Nurr1 (d) in SK-N-BE(2)C cells; expressed in transfected cells; host or cells: SK-N-BE(2)C (human neuroblastoma); MN9D (murine dopaminergic)", "T3 sequence (Q06219 whole entry, the tested form may be a part)": "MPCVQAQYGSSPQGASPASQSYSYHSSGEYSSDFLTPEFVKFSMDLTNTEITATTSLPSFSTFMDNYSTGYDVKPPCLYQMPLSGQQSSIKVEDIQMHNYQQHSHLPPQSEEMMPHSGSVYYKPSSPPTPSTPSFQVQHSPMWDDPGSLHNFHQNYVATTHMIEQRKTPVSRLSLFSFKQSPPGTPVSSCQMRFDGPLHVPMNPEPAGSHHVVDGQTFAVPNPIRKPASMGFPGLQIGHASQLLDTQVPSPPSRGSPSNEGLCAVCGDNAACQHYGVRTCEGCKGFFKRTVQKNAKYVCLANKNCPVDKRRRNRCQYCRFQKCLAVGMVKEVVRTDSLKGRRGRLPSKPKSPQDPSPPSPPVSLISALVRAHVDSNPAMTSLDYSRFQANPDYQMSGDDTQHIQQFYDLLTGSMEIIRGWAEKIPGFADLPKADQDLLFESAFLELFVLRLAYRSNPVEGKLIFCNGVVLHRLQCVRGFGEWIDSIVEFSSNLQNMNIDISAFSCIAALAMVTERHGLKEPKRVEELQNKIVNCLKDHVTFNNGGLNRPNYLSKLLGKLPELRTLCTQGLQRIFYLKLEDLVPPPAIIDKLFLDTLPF", "experiment": "Luciferase reporter assay, full-length Nurr1, MN9D cells", "type": "cell-based", "source_text": "as §1"}}, "note": "Values joined by “and” are separate entries in the source; they are usually repeats but may differ in a detail not shown here. Identical values can stand only once.", "data": [{"compound": "CCN1CCN(c2cc(N3CCN(CC)CC3)nc(NCCNc3ccnc4cc(Cl)ccc34)n2)CC1", "note": "[4A7C-301, N^1-(4,6-bis(4-ethylpiperazin-1-yl)pyrimidin-2-yl)-N^2-(7-chloroquinolin-4-yl)ethane-1,2-diamine]", "values": [{"measurement": "Luciferase activity (fold), Nor1", "setting": "Nor1", "value": "3.28 fold and 3.108 fold and 3.492 fold"}, {"measurement": "concentration of maximal effect on mDAN rescue", "setting": "TH+ neurons; MPP+ or LPS", "value": 500, "unit": "nM"}, {"measurement": "concentration of maximal effect, times lower than CQ", "setting": "TH+ neurons; mDAN rescue", "value": 40, "unit": "times"}, {"measurement": "olfactory dysfunction (in words)", "setting": "[1]; αSynA53T-mice", "value": "significantly reversed"}, {"measurement": "olfactory dysfunction (in words)", "setting": "[1]; αSynWT-mice, 6 and 8 weeks after surgery", "value": "rescued olfactory dysfunction"}, {"measurement": "Luciferase activity (fold)", "setting": "Nurr1-LBD; Fig. S3a, 0.001 µM", "value": "1.103 fold and 1.1109 fold and 1.11 fold"}, {"measurement": "Luciferase activity (fold)", "setting": "Nurr1-LBD; Fig. S3a, 0.01 µM", "value": "2.094 fold and 2.1057 fold and 1.929 fold"}, {"measurement": "Luciferase activity (fold)", "setting": "Nurr1-LBD; Fig. S3a, 0.1 µM", "value": "4.339 fold and 4.261 fold and 4.17 fold"}, {"measurement": "Luciferase activity (fold)", "setting": "Nurr1-LBD; Fig. S3a, 1 µM", "value": "7.077 fold and 6.781 fold and 6.645 fold"}, {"measurement": "Luciferase activity (fold)", "setting": "Nurr1-LBD; Fig. S3a, 10 µM", "value": "6.849 fold and 6.689 fold and 7.128 fold"}, {"measurement": "Luciferase activity (fold)", "setting": "Nurr1-LBD; Fig. S1d, conc. 1 µM, replicates", "value": "6.4567 fold and 6.799 fold and 6.563 fold"}, {"measurement": "Luciferase activity (fold)", "setting": "Nurr1-LBD; Fig. S1d, conc. 10 µM, replicates", "value": "6.943 fold and 6.5332 fold and 6.663 fold"}, {"measurement": "Luciferase activity (fold)", "setting": "Nurr1-LBD; Fig. S1d, conc. 10-1 µM, replicates", "value": "3.61 fold and 3.7661 fold and 3.609 fold"}, {"measurement": "Luciferase activity (fold)", "setting": "Nurr1-LBD; Fig. S1d, conc. 10-2 µM, replicates", "value": "1.993 fold and 2.235 fold and 2.074 fold"}, {"measurement": "Luciferase activity (fold)", "setting": "Nurr1-LBD; Fig. S1d, conc. 10-3 µM, replicates", "value": "1.142 fold and 1.201 fold and 1.251 fold"}, {"measurement": "potency to activate Nurr1 relative to CQ", "setting": "Nurr1-LBD; MN9D cells, Supplementary Fig. 3a,b", "value": "approximately 50 fold"}, {"measurement": "Luciferase activity (fold)", "setting": "full-length Nurr1; Fig. S1e, conc. 1 µM, replicates", "value": "4.17 fold and 4.227 fold and 4.16 fold"}, {"measurement": "Luciferase activity (fold)", "setting": "full-length Nurr1; Fig. S1e, conc. 10 µM, replicates", "value": "4.281 fold and 4.08 fold and 4.219 fold"}, {"measurement": "Luciferase activity (fold)", "setting": "full-length Nurr1; Fig. S1e, conc. 10-1 µM, replicates", "value": "2.744 fold and 2.808 fold and 2.876 fold"}, {"measurement": "Luciferase activity (fold)", "setting": "full-length Nurr1; Fig. S1e, conc. 10-2 µM, replicates", "value": "1.103 fold and 1.099 fold and 1.116 fold"}, {"measurement": "Luciferase activity (fold)", "setting": "full-length Nurr1; Fig. S1e, conc. 10-3 µM, replicates", "value": "1.064 fold and 1.034 fold and 1.025 fold"}, {"measurement": "Luciferase activity (fold)", "setting": "full-length Nurr1; Fig. S3b, 0.001 µM", "value": "1.073 fold and 1.1005 fold and 1.0596 fold"}, {"measurement": "Luciferase activity (fold)", "setting": "full-length Nurr1; Fig. S3b, 0.01 µM", "value": "1.226 fold and 1.227 fold and 1.236 fold"}, {"measurement": "Luciferase activity (fold)", "setting": "full-length Nurr1; Fig. S3b, 0.1 µM", "value": "2.808 fold and 2.776 fold and 2.787 fold"}, {"measurement": "Luciferase activity (fold)", "setting": "full-length Nurr1; Fig. S3b, 1 µM", "value": "4.245 fold and 4.359 fold and 4.273 fold"}, {"measurement": "Luciferase activity (fold)", "setting": "full-length Nurr1; Fig. S3b, 10 µM", "value": "4.295 fold and 4.314 fold and 4.305 fold"}]}]}
